According to patent US20060069132A1, “Azolecarboxamide herbicides” (priority 2004, published 2006):

What was measured:
chickweed = assay: Test C postemergence herbicide test; format: in vivo, Stellaria media; details: for Chickweed plant response rating: 500 g ai/ha
Method: At the same time, plants selected from these crop and weed species and also winter barley (Hordeum vulgare L.), blackgrass (Alopecurus myosuroides Huds.), canarygrass (Phalaris minor Retz.), chickweed (Stellaria media (L.) Vill.), downy bromegrass (Bromus tectorum L.), green foxtail (Setaria viridis (L.) Beauv.), Italian ryegrass (Lolium multiflorum Lam.), wheat (Triticum aestivum L.), wild oat (Avenafatua L.) and windgrass (Apera spica-venti (L.) Beauv.) were treated with postemergence applications of some of the test chemicals formulated in the same manner. Plants ranged in height from 2 to 18 cm (1- to 4-leaf stage) for postemergence treatments. Plant species in the flooded paddy test consisted of rice (Oryza sativa), smallflower umbrella sedge (Cyperus difformis L.), ducksalad (Heteranthera limosa (Sw.) Willd.) and barnyardgrass (Echinochloa crus-galli (L.) Beauv.) grown to the 2-leaf stage for testing. Treated plants and controls were maintained in a greenhouse for 12 to 14 days, after which time all species were compared to controls and visually evaluated. Plant response ratings, summarized in Table C, are based on a scale of 0 to 100 where 0 is no effect and 100 is complete control. A dash (-) response means no test result.

downy bromegrass = assay: Test C postemergence herbicide test; format: in vivo, Bromus tectorum
Outline: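 Visual rating, 0 (no effect) to 100 (complete control), vs. controls at 12–14 d in greenhouse. Postemergence: 1–4-leaf plants, 2–18 cm. Paddy: flooded, barnyardgrass at 2-leaf stage.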

[1] = Postemergence, 250 g ai/ha, scale 0 to 100, 0 no effect, 100 complete control
[2] = postemergence, 125 g ai/ha, scale 0 to 100
[3] = postemergence, 31 g ai/ha, scale 0 to 100
[4] = postemergence, 62 g ai/ha, scale 0 to 100
[5] = Postemergence, 125 g ai/ha, scale 0 to 100, 0 no effect, 100 complete control
[6] = Postemergence, 500 g ai/ha, scale 0 to 100, 0 no effect, 100 complete control
[7] = Postemergence, 500 g ai/ha, scale 0 to 100

Structure (SMILES)	Plant response rating, Chickweed (chickweed; [1])	Plant response rating, Chickweed (chickweed; [2])	Plant response rating, Chickweed (chickweed; [4])	Plant response rating, Bromegrass, Downy (downy bromegrass; [1])	Plant response rating, Bromegrass, Downy (downy bromegrass; [2])	Plant response rating, Bromegrass, Downy (downy bromegrass; [4])	Chickweed plant response rating (chickweed; Postemergence, scale 0 to 100)	other results
CCOC(=O)c1cccc(NC(=O)c2cc(C3(C)CC3)nn2CC)c1 [Compound 295]	100	100	100	45	45	45	–	Plant response rating, Chickweed (chickweed; [3]): 85; Plant response rating, Bromegrass, Downy (downy bromegrass; [3]): 45
CCn1nc(C(C)(C)C)cc1C(=O)Nc1cccc(C(=O)NC2CC2)c1 [Compound 44]	90	–	90	–	–	–	–	Plant response rating, Chickweed (chickweed; [5]): 90
CCn1nc(C(C)(C)C)cc1C(=O)Nc1cc(OC(F)(F)F)ccc1F [Compound 338]	–	–	–	40	35	30	–	Plant response rating, Bromegrass, Downy (downy bromegrass; [6]): 45
C=CCNC(=O)c1cccc(NC(=O)c2cc(C(C)(C)C)nn2C)n1 [Compound 318]	10	0	0	–	–	–	80	–
CCn1nc(C(C)(C)C)cc1C(=O)Nc1cccc(C(=O)NCC2CC2)c1 [Compound 62]	–	–	–	30	20	20	–	Plant response rating, Bromegrass, Downy (downy bromegrass; [3]): 10
CCNC(=O)c1cccc(NC(=O)c2cc(C(C)(C)C)nn2CCF)c1 [Compound 35]	–	–	80	–	–	–	–	Plant response rating, Chickweed (chickweed; [5]): 90; Plant response rating, Chickweed (chickweed; postemergence, 16 g ai/ha, scale 0 to 100): 70; Plant response rating, Chickweed (chickweed; [3]): 70
CCc1nc(C(C)(C)C)sc1C(=O)Nc1cccc(C(=O)NCC2CC2)c1 [Compound 212]	80	80	60	–	–	–	100	–
CCCCOc1cccc(NC(=O)c2cc(C(C)(C)C)nn2CC)c1 [Compound 137]	–	–	–	20	20	10	–	Bromegrass, Downy plant response rating (downy bromegrass; [7]): 40
CCOC(=O)c1cccc(NC(=O)c2cc(C(C)(C)C)nn2CC)c1 [Compound 80, ethyl 3-[[[3-(1,1-dimethylethyl)-1-ethyl-1H-pyrazol-5-yl]carbonyl]-amino]benzoate]	100	100	100	–	–	–	–	Plant response rating, Chickweed (chickweed; [3]): 90
C#CCNC(=O)c1cccc(NC(=O)c2cc(C(C)(C)C)nn2CC)n1 [Compound 147]	90	30	5	–	–	–	100	–
C=Cn1nc(C(C)(C)C)cc1C(=O)Nc1cccc(C(=O)N(CC)CC)c1 [Compound 34]	60	–	–	–	–	–	100	Plant response rating, Chickweed (chickweed; [5]): 50
CCn1nc(C(C)(C)C)cc1C(=O)Nc1cccc(C(=O)OCCF)c1 [Compound 82, 2-fluoroethyl 3-[[[3-(1,1-dimethylethyl)-1-ethyl-1H-pyrazol-5-yl]-carbonyl]amino]benzoate]	100	95	70	–	–	–	100	–
CCNC(=O)c1cccc(NC(=O)c2cc(C(C)(C)C)nn2CC(F)(F)F)c1 [Compound 31]	100	–	90	–	–	–	–	Plant response rating, Chickweed (chickweed; [5]): 90
CCn1nc(C2(C)CC2)cc1C(=O)Nc1cc(C(=O)N2CC=CC2)ccc1F [Compound 301]	–	–	–	40	40	40	–	Bromegrass, Downy plant response rating (downy bromegrass; [7]): 40
CCn1nc(C(C)(C)C)cc1C(=O)Nc1cccc(OS(=O)(=O)CC)c1 [Compound 408]	–	–	–	55	45	40	–	Plant response rating, Bromegrass, Downy (downy bromegrass; [6]): 55
